Results published in US9545393B2, “Methods and compositions for treating pain” (The Board of Trustees of the Leland Stanford Junior …, priority 2012, dated 2017).

System: rats subjected to carrageenan insult to the right hind paw
Assay: Randall-Selitto paw pressure test, carrageenan-induced hyperalgesia in rats
Type: in vivo, rat
Conditions: naloxone 1 mg/kg s.c., with or without Alda-1; carrageenan rats
Description: Rats. Male Wistar rats (170-190 g) were provided by Charles River Laboratories or Butantan Institute Animal Facility and housed in a temperature-controlled (22±1° C.) and light-controlled (12/12 h light/dark cycle) room. All rats were housed in their surrounding for at least 3 days. Groups of 5-6 rats were used.
Drugs Used. 0.1 ml saline (control), carrageenan (200 μg for rats, 100 μg for mice; Marine Colloids), or prostaglandin E2 (100 ng, Sigma) was administered by intraplantar injection into the right hind paw to induce hyperalgesia. These doses were chosen based on previous studies by our laboratory groups (Aley K O, et al., (2000) Chronic hypersensitivity for inflammatory nociceptor sensitization mediated by the epsilon isozyme of protein kinase C. The Journal of neuroscience: the official journal of the Society for Neuroscience 20: 4680-4685; Konno K, et al., (2008) Crotalphine, a novel potent analgesic peptide from the venom of the South American rattlesnake Crotalus durissus terrificus. Peptides 29: 1293-1304).
Alda-1 dose (2 mg/kg/per injection, dissolved in 50% PEG/50% DMSO) was established in preliminary studies and given in multiple doses due to its estimated short half-life. Alda-1 was injected subcutaneously to the dorsal side of the neck 15 minutes before carrageenan or saline, and again at 30 and 150 minutes after carrageenan, prostaglandin E2 or saline injection. One subset of animals received Alda-1 only 30 and 150 minutes after carrageenan injection. Where indicated, naloxone (1 mg/kg per injection) or vehicle (saline) was given 10 minutes prior to each Alda-1 treatment to the dorsal side of the neck.
Nociception Assessment. The experimental performer was blinded to both genotype and/or treatments. Nociceptive response was assessed by the von Frey method for mice and the Randall-Selitto method for rats immediately before and 180 minutes after carrageenan or prostaglandin E2 injection. Both mice and rats were acclimated to the testing equipment one day before baseline testing.
Randall-Selitto method: Nociceptive threshold was determined using the Randall-Selitto paw pressure test (Ugo-Basile), as previously described (Gutierrez V P, et al., (2008) Crotalphine induces potent antinociception in neuropathic pain by acting at peripheral opioid receptors. European journal of pharmacology 594: 84-92). The baseline values varied between 65-75 g of force. Animals with baseline out of this range (about 10%) were excluded prior to initiating the study in order to achieve uniform testing.

C=CCN1CC[C@]23c4c5ccc(O)c4O[C@H]2C(=O)CC[C@@]3(O)[C@H]1C5 [Naloxone, reference compound]
Effect of naloxone on nociceptive threshold: no effect
